Assay results as given in ChEMBL document CHEMBL1156096, “Synthesis and antitubercular activity of 7-chloro-4-quinolinylhydrazones derivatives” (Bioorg Med Chem Lett, 2009).
Values after ≈ are worked out from the molar mass of the structure shown.

How the values were obtained:
[1] = test system: Mycobacterium tuberculosis; assay: Antimycobacterial activity against Mycobacterium tuberculosis H37Rv ATCC 27294 by microplate alamar blue assay; format: functional
[2] = Cytotoxicity against mouse J774 cells assessed as cell viability at 1 ug/ml by MTT assay; format: cell-based; settings: read-out: Activity
[3] = Cytotoxicity against mouse J774 cells assessed as cell viability at 100 ug/ml by MTT assay; format: cell-based; settings: read-out: Activity
[4] = Cytotoxicity against mouse J774 cells assessed as cell viability at 10 ug/ml by MTT assay; format: cell-based; settings: read-out: Activity
[5] = Cytotoxicity against mouse J774 cells infected with Mycobacterium bovis BCG assessed as cell viability at 100 ug/ml by MTT assay; format: cell-based; settings: read-out: Activity
[6] = Cytotoxicity against mouse J774 cells infected with Mycobacterium bovis BCG assessed as cell viability at 10 ug/ml by MTT assay; format: cell-based; settings: read-out: Activity
[7] = Cytotoxicity against mouse J774 cells infected with Mycobacterium bovis BCG assessed as cell viability at 1 ug/ml by MTT assay; format: cell-based; settings: read-out: Activity

Compound | MIC [1] [µg/mL] | also measured
Clc1ccc2c(N/N=C/c3ccccc3)ccnc2c1 | > 100 | 
O=[N+]([O-])c1ccccc1/C=N/Nc1ccnc2cc(Cl)ccc12 | > 100 | 
Clc1ccc2c(N/N=C/c3ccccc3Br)ccnc2c1 | > 100 | 
O=[N+]([O-])c1ccc(/C=N/Nc2ccnc3cc(Cl)ccc23)cc1 | > 100 | 
CC[C@@H](CO)NCCN[C@@H](CC)CO [ETHAMBUTOL] | 3.25 (≈ 15.9 µM) | viability at 1 ug/ml [2]: 100%
O=[N+]([O-])c1cccc(/C=N/Nc2ccnc3cc(Cl)ccc23)c1 | > 100 | 
Fc1cccc(/C=N/Nc2ccnc3cc(Cl)ccc23)c1 | > 100 | 
N#Cc1ccc(/C=N/Nc2ccnc3cc(Cl)ccc23)cc1 | > 100 | 
Clc1ccc2c(N/N=C/c3ccc(Br)cc3)ccnc2c1 | 2.5 (≈ 6.93 µM) | viability at 100 ug/ml [3]: 91%; viability at 10 ug/ml [4]: 100%; viability at 1 ug/ml [2]: 100%; viability at 100 ug/ml [5]: 85%; viability at 10 ug/ml [6]: 100%; viability at 1 ug/ml [7]: 100%
Oc1cccc(/C=N/Nc2ccnc3cc(Cl)ccc23)c1 | > 100 | 
Clc1ccc2c(N/N=C/c3cccc(Br)c3)ccnc2c1 | 3.12 (≈ 8.65 µM) | viability at 100 ug/ml [3]: 3%; viability at 10 ug/ml [4]: 60%; viability at 1 ug/ml [2]: 88%
